# Laboratory results published in patent US8247431B2, “Heterocyclic hydrazide compound and pesticidal use of the same” (Sumitomo Chemical Company, Limited, priority 2007, dated 2012).
# Experiments:
# Assay type in all cases: in vivo
# [1] = tested on: Adoxophyes orana fasciata; assay: Test Example 4: spray on apple seedling, first-instar larvae of Adoxophyes orana fasciata; conditions: 168 h, 500 ppm active ingredient, 20 ml spray on apple seedling, about 30 first-instar larvae, counted seven days after spraying, read-out: controlling value
# Procedure: Then, it will be shown by Test Examples that the present compound is effective in controlling harmful arthropods. In the Test Example, controlling values were calculated by the following equation: Controlling value(%)={1−(Cb×Tai)/(Cai×Tb)}×100 wherein Cb: the number of worms in a non-treated section before treatment Cai: the number of worms in a non-treated section on observation Tb: the number of worms in a treated-section before treatment Tai: the number of worms in a treated-section on observation. Preparations of the test compounds obtained in Formulation Example 5 were diluted with water so that the active ingredient concentration became 500 ppm to prepare test spray solutions. At the same time, 20 ml of the test spray solution as described above was sprayed to an apple seedling (28 day-old seeding, tree height: about 15 cm) planted in a plastic cup. The apple seedling was air-dried to such an extent that the spray solution sprayed on the apple seedling was dried. About 30 first-instar larvae of Adoxophyes orana fasciata were released. Seven days after spraying, the number of worms surviving on the apple seedling was counted, and a controlling value was calculated by the above equation.
# [2] = tested on: Spodoptera litura; assay: Test Example 3: spray on cabbage, fourth-instar larvae of Spodoptera litura; conditions: 120 h, 500 ppm active ingredient, 20 ml/cup spray on cabbage, 10 fourth-instar larvae, counted after 5 days, read-out: controlling value
# Procedure: Then, it will be shown by Test Examples that the present compound is effective in controlling harmful arthropods. In the Test Example, controlling values were calculated by the following equation: Controlling value(%)={1−(Cb×Tai)/(Cai×Tb)}×100 wherein Cb: the number of worms in a non-treated section before treatment Cai: the number of worms in a non-treated section on observation Tb: the number of worms in a treated-section before treatment Tai: the number of worms in a treated-section on observation. Preparations of the test compounds obtained in Formulation Example 5 were diluted with water so that the active ingredient concentration became 500 ppm to prepare test spray solutions. At the same time, cabbage was planted in a polyethylene cup, and grown until the third true leaf or the fourth true leaf was developed. The test spray solution as described above was sprayed in an amount of 20 ml/cup on the cabbage. After the spray solution sprayed on the cabbage was dried, 10 fourth-instar larvae of Spodoptera litura were put on the cabbage. After 5 days, the number of Spodoptera litura surviving on the cabbage leaves was counted, and a controlling value was calculated by the above equation.
# [3] = tested on: cotton aphids (Aphis gossypii); assay: Test Example 2: spray on cucumber infested with cotton aphids; conditions: topical, 144 h, 500 ppm active ingredient, 20 ml/cup spray on cucumber, about 30 aphids, counted six days after spraying, read-out: controlling value
# Procedure: Then, it will be shown by Test Examples that the present compound is effective in controlling harmful arthropods. In the Test Example, controlling values were calculated by the following equation: Controlling value(%)={1−(Cb×Tai)/(Cai×Tb)}×100 wherein Cb: the number of worms in a non-treated section before treatment Cai: the number of worms in a non-treated section on observation Tb: the number of worms in a treated-section before treatment Tai: the number of worms in a treated-section on observation. Preparations of the test compounds obtained in Formulation Example 5 were diluted with water so that the active ingredient concentration became 500 ppm to prepare test spray solutions. At the same time, cucumber was planted in a polyethylene cup, and was grown until the first true leaf was developed. About 30 cotton aphids were put on the cucumber. One day after, the test spray solution as described above was sprayed in an amount of 20 ml/cup on the cucumber. Six days after spraying, the number of cotton aphids (Aphis gossypii) was counted, and a controlling value was calculated by the above equation.
# [4] = tested on: diamondback moths (Plutella xylostella); assay: Test Example 1: spray on cabbage, third-instar larvae of diamondback moths; conditions: 20 ml/cup spray on cabbage, 10 third-instar larvae, counted after 5 days; for pest or weed control at 500 ppm: Plutella xylostella, 120 h, 500 ppm active ingredient, read-out: controlling value; for control value: 0.2 ppm active ingredient
# Procedure: Then, it will be shown by Test Examples that the present compound is effective in controlling harmful arthropods. In the Test Example, controlling values were calculated by the following equation: Controlling value(%)={1−(Cb×Tai)/(Cai×Tb)}×100 wherein Cb: the number of worms in a non-treated section before treatment Cai: the number of worms in a non-treated section on observation Tb: the number of worms in a treated-section before treatment Tai: the number of worms in a treated-section on observation. Preparations of the test compounds obtained in Formulation Example 5 were diluted with water so that the active ingredient concentration became 500 ppm, to prepare test spray solutions. At the same time, cabbage was planted in a polyethylene cup, and grown until the third true leaf or the fourth true leaf was developed. The test spray solution as described above was sprayed in an amount of 20 ml/cup on the cabbage. After the spray solution on the cabbage was dried, 10 third-instar larvae of diamondback moths (Plutella xylostella) were put on the cabbage. After 5 days, the number of diamondback moths was counted, and the controlling value was calculated by the above equation. Furthermore, preparations of the test compound (7) and a comparative compound of the formula [drawing 523] obtained in a formulation according to Formulation Example 5 were diluted with water so that the active ingredient concentration became 0.2 ppm, to prepare test spray solution. At the same time, cabbage was planted in a polyethylene cup, and grown until the third true leaf or the fourth true leaf was developed. The test spray solution as described above was sprayed in an amount of 20 ml/cup on the cabbage. After the spray solution on the cabbage was dried, 10 third-instar larvae of diamondback moths (Plutella xylostella) were put on the cabbage. After 5 days, the number of diamondback moths was counted, and the controlling value was calculated by the above equation.
SMILES,pest or weed control at 500 ppm [1] [%],pest or weed control at 500 ppm [2] [%],pest or weed control at 500 ppm [3] [%],pest or weed control at 500 ppm [4] [%],control value [4]
"COC(=O)NNC(=O)c1nc(Cl)cc(Cl)c1NC(=O)c1cc(Br)nn1-c1ncccc1Cl [Compound 14, N′-(3-{[5-bromo-2-(3-chloro-pyridin-2-yl)-2H-pyrazole-3-carbonyl]-amino}-4,6-dichloro-pyridine-2-carbonyl)-hydrazinecarboxylic acid methyl ester]",≥ 90,≥ 80,≥ 90,≥ 90,
"COC(=O)NNC(=O)c1cnn(C)c1NC(=O)c1cc(Br)nn1-c1ncccc1Cl [Compound 19, N′-(5-{[5-bromo-2-(3-chloro-pyridin-2-yl)-2H-pyrazole-3-carbonyl]-amino}-1-methyl-1H-pyrazole-4-carbonyl)-hydrazinecarboxylic acid methyl ester]",≥ 90,,≥ 90,≥ 90,
"COC(=O)NNC(=O)c1cc(Cl)nc(C)c1NC(=O)c1cc(Br)nn1-c1ncccc1Cl [Compound 3, N′-(3-{[5-bromo-2-(3-chloro-pyridin-2-yl)-2H-pyrazole-3-carbonyl]-amino}-6-chloro-2-methyl-pyridine-4-carbonyl)-hydrazinecarboxylic acid methyl ester]",≥ 90,≥ 80,≥ 90,≥ 90,
"COC(=O)NNC(=O)c1nc(Cl)cc(Br)c1NC(=O)c1cc(Br)nn1-c1ncccc1Cl [Compound 15, N′-(4-bromo-3-{[5-bromo-2-(3-chloro-pyridin-2-yl)-2H-pyrazole-3-carbonyl]-amino}-6-chloro-pyridine-2-carbonyl)-hydrazine carboxylic acid methyl ester]",≥ 90,≥ 80,≥ 90,≥ 90,
"COC(=O)NNC(=O)c1cc(Br)nc(Br)c1NC(=O)c1cc(Br)nn1-c1ncccc1Cl [Compound 5, N′-(2,6-dibromo-3-{[5-bromo-2-(3-chloro-pyridin-2-yl)-2H-pyrazole-3-carbonyl]-amino}-pyridine-4-carbonyl)-hydrazinecarboxylic acid methyl ester]",≥ 90,≥ 80,≥ 90,≥ 90,
"COC(=O)NNC(=O)c1cc(Cl)nc(Cl)c1NC(=O)c1cc(Br)nn1-c1ncccc1Cl [Compound 1, N′-(3-{[5-bromo-2-(3-chloro-pyridin-2-yl)-2H-pyrazole-3-carbonyl]-amino}-2,6-dichloro-pyridine-4-carbonyl)-hydrazinecarboxylic acid methyl ester]",≥ 90,≥ 80,≥ 90,≥ 90,
"CCN(NC(=O)c1nc(Cl)cc(C)c1NC(=O)c1cc(Br)nn1-c1ncccc1Cl)C(=O)OC [Compound 10, N′-(3-{[5-bromo-2-(3-chloro-pyridin-2-yl)-2H-pyrazole-3-carbonyl]-amino}-6-chloro-4-methyl-pyridine-2-carbonyl)-N-ethyl-hydrazinecarboxylic acid methyl ester]",,≥ 80,≥ 90,≥ 90,
"COC(=O)NNC(=O)c1cccnc1NC(=O)c1cc(C(F)(F)F)nn1-c1ncccc1Cl [Compound 17, N′-(2-{[2-(3-chloro-pyridin-2-yl)-5-trifluoromethyl-2H-pyrazole-3-carbonyl]-amino}-pyridine-3-carbonyl)-hydrazinecarboxylic acid methyl ester]",,≥ 80,,≥ 90,
"COC(=O)NNC(=O)c1nc(Cl)cc(C)c1NC(=O)c1cc(Br)nn1-c1ncccc1Cl [Compound 7, N′-(3-{[5-bromo-2-(3-chloro-pyridin-2-yl)-2H-pyrazole-3-carbonyl]-amino}-6-chloro-4-methyl-pyridine-2-carbonyl)-hydrazinecarboxylic acid methyl ester]",≥ 90,≥ 80,≥ 90,≥ 90,more than 80%
"CCN(NC(=O)OC)C(=O)c1nc(Cl)cc(C)c1NC(=O)c1cc(Br)nn1-c1ncccc1Cl [Compound 11, N′-(3-{[5-bromo-2-(3-chloro-pyridin-2-yl)-2H-pyrazole-3-carbonyl]-amino}-6-chloro-4-methyl-pyridine-2-carbonyl)-N′-ethyl-hydrazine carboxylic acid methyl ester]",,≥ 80,≥ 90,≥ 90,
"COC(=O)NNC(=O)c1scc(C)c1NC(=O)c1cc(Br)nn1-c1ncccc1Cl [Compound 18, N′-(3-{[5-bromo-2-(3-chloro-pyridin-2-yl)-2H-pyrazole-3-carbonyl]-amino}-4-methyl-thiophene-2-carbonyl)-hydrazinecarboxylic acid methyl ester]",,,≥ 90,,
"COC(=O)N(C)N(C)C(=O)c1nc(Cl)cc(C)c1NC(=O)c1cc(Br)nn1-c1ncccc1Cl [Compound 9, N′-(3-{[5-bromo-2-(3-chloro-pyridin-2-yl)-2H-pyrazole-3-carbonyl]-amino}-6-chloro-4-methyl-pyridine-2-carbonyl)-N,N′-dimethyl-hydrazinecarboxylic acid methyl ester]",,≥ 80,≥ 90,≥ 90,
"CCN(NC(=O)OC)C(=O)c1nc(Br)cc(Br)c1NC(=O)c1cc(Br)nn1-c1ncccc1Cl [Compound 16, N′-(4,6-dibromo-3-{[5-bromo-2-(3-chloro-pyridin-2-yl)-2H-pyrazole-3-carbonyl]-amino}-pyridine-2-carbonyl)-N′-ethyl-hydrazinecarboxylic acid methyl ester]",,≥ 80,≥ 90,≥ 90,
"COC(=O)NNC(=O)c1cc(Cl)nc(Cl)c1NC(=O)c1cc(C(F)(F)F)nn1-c1ncccc1Cl [Compound 2, N′-(2,6-dichloro-3-{[2-(3-chloro-pyridin-2-yl)-5-trifluoromethyl-2H-pyrazole-3-carbonyl]-amino}-pyridine-4-carbonyl)-hydrazinecarboxylic acid methyl ester]",≥ 90,,≥ 90,≥ 90,
Cc1cc(Cl)nc(C(=O)NN(C)C)c1NC(=O)c1cc(Br)nn1-c1ncccc1Cl [reference compound],,,,,less than 80%
